In patent US8153819B2, “Fungicidal mixtures comprising substituted 1-methylpyrazol-4-ylcarboxanilides” (BASF SE, priority 2005, dated 2012):

Assays:
Puccinia recondita = assay: Curative activity against brown rust of wheat caused by Puccinia recondita; type: in vivo; conditions: curative spray 1 day after inoculation, read after 7 days
Experimental: (§1) The active compounds, separately or jointly, were prepared as a stock solution comprising 25 mg of active compound which was made up to 10 ml using a mixture of acetone and/or dimethyl sulfoxide and the emulsifier Uniperol® EL (wetting agent having an emulsifying and dispersing action based on ethoxylated alkylphenols) in a ratio by volume of solvent/emulsifier of 99:1. The mixture was then made up to 100 ml with water. This stock solution was diluted with the solvent/emulsifier/water mixture described to give the concentration of active compound stated below.
(§2) As an alternative, the active compounds epoxiconazole, triticonazole and pyraclostrobin were used as commercially available ready-to-use formulation and diluted to the specified active compound concentration with water.
(§3) The visually determined percentages of infected leaf areas were converted into efficacies in % of the untreated control:
(§4) The efficacy (E) is calculated as follows using Abbot's formula: E=(1−α/β)·100 α corresponds to the fungicidal infection of the treated plants in % and β corresponds to the fungicidal infection of the untreated (control) plants in %
(§5) An efficacy of 0 means that the infection level of the treated plants corresponds to that of the untreated control plants; an efficacy of 100 means that the treated plants are not infected.
(§6) The expected efficacies of active compound combinations were determined using Colby's formula (Colby, S. R. “Calculating synergistic and antagonistic responses of herbicide combinations”, Weeds, 15, 20-22, 1967) and compared with the observed efficacies.
(§7) Colby's formula: E=x+y−x·y/100 • E expected efficacy, expressed in % of the untreated control, when using the mixture of the active compounds A and B at the concentrations a and b; • x efficacy, expressed in % of the untreated control, when using the active compound A at the concentration a; • y efficacy, expressed in % of the untreated control, when using the active compound B at the concentration b.
Leaves of potted wheat seedlings of the cultivar “Kanzler” were inoculated with a spore suspension of brown rust (Puccinia recondita). The pots were then placed in a chamber with high atmospheric humidity (90 to 95%) and 20 to 22° C. for 24 hours. During this time, the spores germinated and the germ tubes penetrated into the leaf tissue. The next day, the infected plants were sprayed to runoff point with the above-described active compound solution having the active compound concentration stated below. After the spray coating had dried on, the test plants were cultivated in a greenhouse at temperatures between 20 and 22° C. and 65 to 70% relative atmospheric humidity for 7 days. The extent of the rust fungal development on the leaves was then determined.

[1] = test system: Pyrenophora [syn. Drechslera] teres; assay: Activity against net blotch of barley caused by Pyrenophora teres, 1 day protective application; type: in vivo; conditions: barley seedlings sprayed 24 h before inoculation, read after 6 days, efficacy in % of untreated control (Abbot)
Experimental: as §1, §2, §3
The efficacy (E) is calculated as follows using Abbot's formula: E=(1−α/β)·100 α corresponds to the fungicidal infection of the treated plants in % and β corresponds to the fungicidal infection of the untreated (control) plants in % […]
(§8) The expected efficacies of active compound combinations were determined using Colby's formula (Colby, S. R. “Calculating synergistic and antagonistic responses of herbicide combinations”, Weeds, 15, 20-22, 1967) and compared with the observed efficacies. […]

Botrytis cinerea = assay: Activity against gray mold on bell pepper leaves caused by Botrytis cinerea, 1 day protective application; type: in vivo; conditions: 1 day protective spray, read after 5 days
Experimental: as §1, §2, §3, §4, §5, §6, §7
Bell pepper seedlings of the cultivar “Neusiedler Ideal Elite” were, after 2-3 leaves were well developed, sprayed to runoff point with an aqueous suspension in the active compound concentration specified below. The next day, the treated plants were inoculated with a spore suspension of Botrytis cinerea which contained 1.7×10^6 spores/ml in a 2% strength aqueous biomalt solution. The test plants were then placed in a climatized chamber at 22 to 24° C., darkness and high atmospheric humidity. After 5 days, the extent of the fungal infection on the leaves could be determined visually in %.

Alternaria solani = assay: Activity against early blight of tomato caused by Alternaria solani (protective spray); type: in vivo; conditions: tomato leaves sprayed 1 day before infection, read after 5 days, efficacy in % of untreated control (Abbot)
Experimental: as §1, §2, §3, §4, §5, §8
Leaves of potted tomato plants were sprayed to runoff point with an aqueous suspension having the active compound concentration stated below. […] After 5 days, the disease on the untreated but infected control plants had developed to such an extent that the infection could be determined visually in %.

Fc1ccc([C@]2(Cn3cncn3)O[C@H]2c2ccccc2Cl)cc1 (racemic) [epoxiconazole, (2RS,3SR)-1-[3-(2-chlorophenyl)-2,3-epoxy-2-(4-fluorophenyl)propyl]-1H-1,2,4-triazole, reference compound]
Observed activity (% infection) (Puccinia recondita; 0.063 mg/l): 0%
Observed activity (% infection) ([1]; 0.063 mg/l): 0%

CC1CCN(c2c(-c3c(F)cc(F)cc3F)c(Cl)nc3ncnn23)CC1 [5-chloro-7-(4-methyl-piperidin-1-yl)-6-(2,4,6-trifluorophenyl)-[1,2,4]tri-azolo[1,5-a]pyrimidine]
Observed activity (% infection) (Puccinia recondita; 4 mg/l): 40%

Cn1cc(C(=O)Nc2ccccc2-c2cc(F)c(F)c(F)c2)c(C(F)F)n1 [No. Id.344, N-(3′,4′,5′-trifluorobiphenyl-2-yl)-3-difluoromethyl-1-methyl-1H-pyrazole-4-carboxamide]
Observed activity (% infection) (Puccinia recondita; 1 mg/l): 0%
Observed activity (% infection) (Botrytis cinerea; 1 mg/l): 40%
Observed activity (% infection) ([1]; 0.25 mg/l): 67%

Cn1cc(C(=O)Nc2ccccc2-c2cc(F)c(F)c(F)c2)c(CF)n1 [No. Ig. 344, N-(3′,4′,5′-trifluorobiphenyl-2-yl)-3-fluoromethyl-1-methyl-1H-pyrazole-4-carboxamide]
melting point: 152 to 156 °C

Cn1nc(Cl)c(C(=O)Nc2ccccc2-c2cc(F)c(F)c(F)c2)c1C(F)F [No. Ih. 344, N-(3′,4′,5′-trifluorobiphenyl-2-yl)-3-chlorodifluoromethyl-1-methyl-1H-pyrazole-4-carboxamide]
melting point: 158 to 161 °C

Cn1nc(Cl)c(C(=O)Nc2ccccc2-c2cc(F)c(F)c(F)c2)c1CF [No. Ij. 344, N-(3′,4′,5′-trifluorobiphenyl-2-yl)-3-chlorofluoromethyl-1-methyl-1H-pyrazole-4-carboxamide]
melting point: 154 to 157 °C

N#Cc1c(Cl)c(Cl)c(Cl)c(C#N)c1Cl [chlorthalonil, 2,4,5,6-tetrachloroisophthalonitrile, reference compound]
Observed activity (% infection) (Alternaria solani; 63 mg/l): 0%
Observed activity (% infection) (Puccinia recondita; 16 mg/l): 0%

COc1ccc(C(=CC(=O)N2CCOCC2)c2ccc(Cl)cc2)cc1OC [dimethomorph]
Observed activity (% infection) (Botrytis cinerea; 4 mg/l): 0%
Observed activity (% infection) (Botrytis cinerea; 16 mg/l): 0%
Observed activity (% infection) (Botrytis cinerea; 63 mg/l): 0%

COc1cc(C)c(C(=O)c2c(OC)ccc(Br)c2C)c(OC)c1OC [metrafenone]
Observed activity (% infection) (Botrytis cinerea; 4 mg/l): 0%
Observed activity (% infection) (Botrytis cinerea; 16 mg/l): 0%
Observed activity (% infection) (Botrytis cinerea; 63 mg/l): 0%

COC(=O)N(OC)c1ccccc1COc1ccn(-c2ccc(Cl)cc2)n1 [pyraclostrobin, methyl N-{2-[1-(4-chlorophenyl)-1H-pyrazol-3-yloxymethyl]phenyl}(N-methoxy)carbamate, reference compound]
Observed activity (% infection) (Alternaria solani; 4 mg/l): 50%
Observed activity (% infection) (Puccinia recondita; 1 mg/l): 0%

CC1(C)CCC(=Cc2ccc(Cl)cc2)C1(O)Cn1cncn1 (centres unmarked) [triticonazole]
Observed activity (% infection) (Puccinia recondita; 1 mg/l): 0%
Observed activity (% infection) (Botrytis cinerea; 4 mg/l): 0%

zinc ammoniate ethylenebis(dithiocarbamate) [metiram, reference compound]
Observed activity (% infection) (Alternaria solani; 63 mg/l): 0%
Observed activity (% infection) (Botrytis cinerea; 16 mg/l): 0%
